Measured values published in PubChem BioAssay (NCI).
Where “and” joins values, the source holds several entries; their conditions need not be identical. Identical values can stand only once.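 Grown in 96-well plates, cells were treated for 48 hours with each compound at five concentrations. Insufficient inhibition: endpoint recorded as highest concentration tested. Abbreviation: GI50, concentration required for 50% inhibition of growth. TGI is the concentration that stops growth completely.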

Legend:
Assay in all cases: NCI tumour cell line growth inhibition, 48 h
[1] = test system: SF-268 CNS
[2] = test system: CCRF-CEM leukemia
[3] = test system: EKVX NSCLC
[4] = test system: SW-620 colon
[5] = test system: K-562 leukemia
[6] = test system: LOX IMVI melanoma
[7] = test system: U251 CNS
[8] = test system: SF-539 CNS
[9] = test system: OVCAR-5 ovarian
[10] = test system: NCI-H226 lung
[11] = test system: OVCAR-4 ovarian

Row | SMILES | TGI [1] | TGI [2] | TGI [3] | TGI [4] | TGI [5] | TGI [6] | TGI [7] | TGI [8] | TGI [9] | TGI [10] | TGI [11] | GI50 [1] | GI50 [2] | GI50 [3] | GI50 [4] | GI50 [5] | GI50 [6] | GI50 [8] | GI50 [9]
1 | CO[C@H](C)[C@](O)(C(=O)OCC1=CCN2CC[C@@H](O)[C@H]12)C(C)C | > 100 µM | > 100 µM | > 100 µM | > 100 µM | > 100 µM | > 100 µM | > 100 µM | > 100 µM | > 100 µM | > 100 µM | > 100 µM | – | – | – | – | – | – | – | –
2 | O=c1[nH]nc(-c2ccc([N+](=O)[O-])cc2)[nH]1 | > 100 µM | > 100 µM | > 100 µM | > 100 µM | > 100 µM | > 100 µM | > 100 µM | > 100 µM | > 100 µM | > 100 µM | > 100 µM | – | – | – | – | – | – | – | –
3 | CCCCCc1cc(CCCC)sc1-c1ccco1 | > 100 µM | > 75 µM | > 100 µM | > 100 µM | > 100 µM | > 100 µM | > 100 µM | > 100 µM | > 100 µM | > 100 µM | > 100 µM | – | – | – | – | – | – | – | –
4 | C[N+]1(CCCCN2c3ccccc3Sc3cc(N=[N+]=[N-])ccc32)CCN(C(=O)CCNC(=O)Cc2ccc(C(=O)c3ccccc3)cc2)CC1 | 71.5 µM | 64.2 µM | > 81.5 µM | > 74.6 µM | > 57.7 µM | > 78.1 µM | > 87.3 µM | > 76.9 µM | 56.1 µM | > 85.7 µM | 48.8 µM | – | – | – | – | – | – | – | –
5 | CN(C)CN1C(=O)/C(=N\n2c(-c3ccncc3)n[nH]c2=S)c2ccccc21 | > 100 µM | > 100 µM | > 100 µM | > 100 µM | > 100 µM | 62.2 µM | > 100 µM | 52.4 µM | > 100 µM | > 100 µM | 45.2 µM | – | – | – | – | – | – | – | –
6 | COC(=O)Cc1c2n(c3ccccc13)C(=O)N1c3ccccc3C(CC(=O)OC)C21 (centres undefined) | > 100 µM | > 100 µM | > 100 µM | > 100 µM | > 100 µM | > 100 µM | > 100 µM | 49.4 µM | > 100 µM | > 100 µM | 57.1 µM | – | – | – | – | – | – | – | –
7 | O=C1c2cccnc2C(=O)c2c1nc1ccccc1c2-c1ccc2c3c(nc4ccccc42)C(=O)c2cccnc2-c13 | 6.46 µM | 15.5 µM | 6.69 µM | 4.79 µM | > 35.3 µM | 9.12 µM | 9.01 µM | 7.49 µM | 33.6 µM | 7.55 µM | 14 µM | – | – | – | – | – | – | – | –
8 | CC(C)(C)[Si](C)(C)OC1CCOC1(O)c1ccccn1 (centres undefined) | > 100 µM | > 100 µM | > 100 µM | > 100 µM | > 100 µM | > 100 µM | > 100 µM | > 100 µM | > 100 µM | > 100 µM | > 100 µM | – | – | – | – | – | – | – | –
9 | COC(=O)c1ccc2cc(O)ccc2c1 | > 100 µM | > 100 µM | > 100 µM | > 100 µM | > 100 µM | > 100 µM | > 100 µM | > 100 µM | > 100 µM | > 100 µM | > 100 µM | – | – | – | – | – | – | – | –
10 | Brc1ccc(/C(N=N/C(=N\Sc2ccccc2)c2ccc(Br)cc2)=N/Sc2ccccc2)cc1 | > 100 µM | > 100 µM | > 100 µM | > 100 µM | > 100 µM | > 100 µM | > 100 µM | > 100 µM | > 100 µM | > 100 µM | > 100 µM | – | – | – | – | – | – | – | –
11 | O=C(O)CCSc1ncnc2nc[nH]c12 | > 100 µM | > 100 µM | > 100 µM | > 100 µM | > 100 µM | > 100 µM | > 100 µM | > 100 µM | > 100 µM | > 100 µM | > 100 µM | – | – | – | – | – | – | – | –
12 | CC(=O)N=S(NC(=O)c1ccc(C)cc1)C(Cl)(Cl)Cl (centres undefined) | > 100 µM | 51.5 µM | > 100 µM | 36.3 µM | > 100 µM | 80.1 µM | 59.3 µM | > 100 µM | > 100 µM | > 100 µM | 77.7 µM | – | – | – | – | – | – | – | –
13 | O=C1CCC(CCc2nc3ccccc3[nH]2)(c2ccccc2)C(=O)N1 (centres undefined) | > 100 µM | > 100 µM | > 100 µM | > 100 µM | > 100 µM | > 100 µM | > 100 µM | > 100 µM | > 100 µM | > 100 µM | > 100 µM | – | – | – | – | – | – | – | –
14 | COC(=O)[C@@H]1[C@H]2CC[C@]3(C)[C@@H](OC(C)=O)CC[C@H]3[C@@H]2CC[C@H]1C1(C)SCCS1 | > 100 µM | 86.4 µM | 74.4 µM | > 100 µM | 94 µM | 34.6 µM | 54.4 µM | > 100 µM | 50.8 µM | 42.3 µM | 75.2 µM | – | – | – | – | – | – | – | –
15 | O=C(CCl)Nc1ccc(C(=O)N/N=C/c2ccc(Cl)cc2)cc1 | 3.88 µM and 6.85 µM | 5.32 µM and 4.46 µM | 4.02 µM and 38.5 µM | 6.81 µM and 7.06 µM | 4.04 µM and 7.46 µM | 3.5 µM and 2.91 µM | 3.61 µM and 3.24 µM | 3.29 µM and 4.35 µM | 3.6 µM and 33.1 µM | 35.3 µM | 4.48 µM and 4.43 µM | 1.81 µM | 2.23 µM | 20 µM | 3.35 µM | 2 µM | 1.72 µM | 1.75 µM | 1.98 µM
16 | Nc1cc2nc(-c3ccccc3)cn2cn1 | > 100 µM | > 100 µM | 95.3 µM | > 100 µM | > 100 µM | > 100 µM | > 100 µM | > 100 µM | > 100 µM | > 100 µM | > 100 µM | – | – | – | – | – | – | – | –
17 | CC12CCC(=O)[C@@]1(C)CCCC2=O (some centres undefined) | > 100 µM | > 100 µM | > 100 µM | > 100 µM | > 100 µM | > 100 µM | > 100 µM | > 100 µM | > 100 µM | > 100 µM | > 100 µM | – | – | – | – | – | – | – | –
18 | C=CCN(c1cc(OC)c2[nH]c(C(=O)O)c(C)c2c1[N+](=O)[O-])S(C)(=O)=O | > 100 µM | > 100 µM | > 100 µM | > 100 µM | > 100 µM | > 100 µM | > 100 µM | > 100 µM | > 100 µM | > 100 µM | > 100 µM | – | – | – | – | – | – | – | –
19 | C[C@@H](CCO)OC1OC(COC(=O)C(C)(C)C)C(OC(=O)C(C)(C)C)C(OC(=O)C(C)(C)C)C1OC(=O)C(C)(C)C (some centres undefined) | > 100 µM | > 100 µM | > 100 µM | > 100 µM | > 100 µM | > 100 µM | > 100 µM | > 100 µM | > 100 µM | > 100 µM | > 100 µM | – | – | – | – | – | – | – | –
20 | O=C1CCCC2=C1CC1=C(CCCC1=O)N2c1ccc(-c2ccccc2)cc1 | > 100 µM | > 100 µM | > 100 µM | > 100 µM | > 100 µM | > 100 µM | > 100 µM | > 100 µM | > 100 µM | > 100 µM | > 100 µM | – | – | – | – | – | – | – | –
21 | O=C(O[C@@H](/C=C/c1ccccc1)P1(=O)N(Cc2ccccc2)[C@@H]2CCCC[C@H]2N1Cc1ccccc1)c1ccccc1 | > 100 µM | 80.9 µM | > 100 µM | > 100 µM | > 100 µM | 11.1 µM | > 100 µM | > 100 µM | > 100 µM | 9.58 µM | 6.33 µM | – | – | – | – | – | – | – | –
